Measured values taken from BigSolDB 2.1.

C=C(C)[C@@H]1CC[C@]2(CO)CC[C@]3(C)[C@H](CC[C@@H]4[C@@]5(C)CC[C@H](O)C(C)(C)[C@@H]5CC[C@]43C)[C@@H]12
solubility (mole fraction)
Settings | 278.2 K | 288.2 K | 298.2 K | 308.2 K | 318.2 K
in acetone | 0.000689 | 0.00101 | 0.0015 | 0.00203 | 0.00243
in ethanol | 0.000842 | 0.00096 | 0.00107 | 0.00124 | 0.00135
